The results in this text go back to paper PMC10285300, “Abscisic acid mimic-fluorine derivative 4 alleviates water deficit stress by regulating ABA-responsive genes, proline accumulation, CO2 assimilation, water use efficiency and better nutrient uptake in tomato plants” (Frontiers in Plant Science, 2023).

One assay concerns the target T1, Sl08g076960 (Solanum lycopersicum, UniProt A0A3Q7HTY9).
T1 construct: gene LOC101268417; with Protein phosphatase 2C 16 (Arabidopsis thaliana)
T1 sequence (A0A3Q7HTY9 1-231): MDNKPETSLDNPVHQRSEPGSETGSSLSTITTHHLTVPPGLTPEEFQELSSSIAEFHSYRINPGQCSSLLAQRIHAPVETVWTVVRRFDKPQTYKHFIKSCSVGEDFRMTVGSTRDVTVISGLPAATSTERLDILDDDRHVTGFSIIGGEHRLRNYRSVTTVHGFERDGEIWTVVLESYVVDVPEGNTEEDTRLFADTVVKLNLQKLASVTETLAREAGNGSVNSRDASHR
T1 sequence (Q9CAJ0 172-511 partner limits assumed): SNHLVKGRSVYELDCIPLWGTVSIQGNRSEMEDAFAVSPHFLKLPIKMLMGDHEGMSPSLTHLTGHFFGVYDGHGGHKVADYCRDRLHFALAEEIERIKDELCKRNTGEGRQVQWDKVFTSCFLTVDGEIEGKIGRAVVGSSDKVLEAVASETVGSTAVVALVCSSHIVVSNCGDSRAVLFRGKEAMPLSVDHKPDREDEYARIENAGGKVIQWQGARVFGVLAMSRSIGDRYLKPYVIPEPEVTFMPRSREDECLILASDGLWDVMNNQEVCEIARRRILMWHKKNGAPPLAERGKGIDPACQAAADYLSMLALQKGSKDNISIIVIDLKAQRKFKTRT
Put plainly: PP2C inhibition assay (pNPP, […] nm), receptor-dependent inhibition of HAB1. Type of assay: biochemical. As to conditions: agonist; deltaN-HAB1 1 uM, receptor 2 uM, 25 mM pNPP, 10 mM MnCl2, Tris pH 8.0.

The target in a further assay is T2, ΔN-HAB1 (Arabidopsis thaliana, UniProt Q9CAJ0).
T2 sequence (Q9CAJ0 172-511 limits assumed): T1 sequence (Q9CAJ0 172-511 partner limits assumed)
The experiment in a line: phosphatase activity, […] nm, […] min. The class given is biochemical. As to conditions: 25 mM pNPP, 10 mM MnCl2, Tris pH 8.0.

As for `CCCN1C(=O)CCc2cc(NS(=O)(=O)Cc3c(F)c(F)c(C)c(F)c3F)ccc21` [AMF4, N-(2-oxo-1-propyl-1,2,3,4-tetrahydroquinolin-6-yl)-1-(2,3,5,6-tetrafluoro-4-methylphenyl) methanesulfonamide], on Sl08g076960, the “PP2C activity at 1 or 10 μM” value is listed as “both PYL1-like tomato receptors were activated by AMF4, resulting in the inhibition of the PP2C”. Take `O=[N+]([O-])c1ccc(OP(=O)(O)O)cc1` [p-nitrophenyl phosphate]: the “phosphatase activity, 405 nm, 20 min” value on ΔN-HAB1 is “Phosphatase activity was measured using p-nitrophenyl phosphate (pNPP) as a substrate”.
